Measurements published in patent US20040142952A1, “Triazoloquinazoline and pyrazolotriazolopyrimidine derivatives, medicinal compositions, adenosine a3 receptor affinity agents, ocular tension lowering agents, preparations for preventing and treating glaucoma and method of lowering ocular tension” (priority 2001, published 2004).

Row | melting point | SMILES
1 | > 280 °C | CCCCc1nc2nncc-2c2nc(-c3ccc(O)cc3)[nH]n12 [Example 12, 5-n-butyl-2-(4-hydroxyphenyl)pyrazolo[4,3-e]-1,2,4-triazolo[1,5-c]pyrimidine]
2 | 191 to 192 °C | CCCCc1nc2nncc-2c2nc(-c3ccc(OCCC)cc3)[nH]n12 [Example 14, 5-n-butyl-2-(4-propoxyphenyl)pyrazolo[4,3-e]-1,2,4-triazolo[1,5-c]pyrimidine]
3 | 259 to 262 °C | CCCCc1nc2nncc-2c2nc(-c3cc(OC)c(OC)c(OC)c3)[nH]n12 [Example 15, 5-n-butyl-2-(3,4,5-trimethoxyphenyl)pyrazolo[4,3-e]-1,2,4-triazolo[1,5-c]pyrimidine]
4 | 279 to 280.5 °C | CCCCc1nc2nncc-2c2nc(-c3ccc([N+](=O)[O-])cc3)[nH]n12 [Example 17, 5-n-butyl-2-(4-nitrophenyl)pyrazolo[4,3-e]-1,2,4-triazolo[1,5-c]pyrimidine]
5 | 217 to 219 °C | CCCCc1nc2nncc-2c2nc(-c3cccnc3)[nH]n12 [Example 18, 5-n-butyl-2-(3-pyridyl)pyrazolo[4,3-e]-1,2,4-triazolo[1,5-c]pyrimidine]
6 | 253 to 254.5 °C | CCCCc1nc2nncc-2c2nc(-c3ccco3)[nH]n12 [Example 19, 5-n-butyl-2-(2-furyl)pyrazolo[4,3-e]-1,2,4-triazolo[1,5-c]pyrimidine]
7 | 214 to 216 °C | CCCCc1nc2nncc-2c2nc(-c3cccs3)[nH]n12 [Example 20, 5-n-butyl-2-(2-thienyl)pyrazolo[4,3-e]-1,2,4-triazolo[1,5-c]pyrimidine]
8 | 143 to 144 °C | CCCc1nc2ccccc2c2nc(-c3ccccc3)nn12 [Example 21, 2-phenyl-5-propyl-1,2,4-triazolo[1,5-c]quinazoline]
9 | 104.5 to 105.55 °C | CCCCc1nc2ccccc2c2nc(-c3ccccc3Cl)nn12 [Example 24, 5-n-butyl-2-(2-chlorophenyl)-1,2,4-triazolo[1,5-c]quinazoline]
10 | 129 to 131 °C | CCCCc1nc2ccccc2c2nc(-c3cccc(Cl)c3)nn12 [Example 25, 5-n-butyl-2-(3-chlorophenyl)-1,2,4-triazolo[1,5-c]quinazoline]
11 | 106 to 108 °C | CCCCc1nc2ccccc2c2nc(-c3ccc(C(C)(C)C)cc3)nn12 [Example 29, 5-n-butyl-2-(4-t-butylphenyl)-1,2,4-triazolo[1,5-c]quinazoline]
12 | 106.5 to 107.5 °C | CCCCc1nc2ccccc2c2nc(-c3ccccc3OC)nn12 [Example 33, 5-n-butyl-2-(2-methoxyphenyl)-1,2,4-triazolo[1,5-c]quinazoline]
13 | 128 to 129 °C | CCCCc1nc2ccccc2c2nc(-c3ccc(OCCC)cc3)nn12 [Example 36, 5-n-butyl-2-(4-propoxyphenyl)-1,2,4-triazolo[1,5-c]quinazoline]
14 | 130 to 133 °C | CCCCc1nc2ccccc2c2nc(-c3cc(OC)c(OC)c(OC)c3)nn12 [Example 37, 5-n-butyl-2-(3,4,5-trimethoxyphenyl)-1,2,4-triazolo[1,5-c]quinazoline]
15 | 148.5 to 150 °C | CCCCc1nc2ccccc2c2nc(-c3ccc(N(C)C)cc3)nn12 [Example 38, 5-n-butyl-2-[4-(N,N-dimethylamino)phenyl]-1,2,4-triazolo[1,5-c]quinazoline]
16 | 194 to 195 °C | CCCCc1nc2ccccc2c2nc(-c3ccc([N+](=O)[O-])cc3)nn12 [Example 39, 5-n-butyl-2-(4-nitrophenyl)-1,2,4-triazolo[1,5-c]quinazoline]
17 | 140 to 141.5 °C | CCCCc1nc2ccccc2c2nc(-c3cccnc3)nn12 [Example 40, 5-n-butyl-2-(3-pyridyl)-1,2,4-triazolo[1,5-c]quinazoline]

Row | melting point | SMILES
18 | 147 to 149.5 °C | CCCCc1nc2ccccc2c2nc(-c3cccs3)nn12 [Example 42, 5-n-butyl-2-(2-thienyl)-1,2,4-triazolo[1,5-c]quinazoline]
19 | 123 to 124 °C | CCCCc1nc2cccc(F)c2c2nc(-c3ccccc3)nn12 [Example 43, 5-n-butyl-10-fluoro-2-phenyl-1,2,4-triazolo[1,5-c]quinazoline]
20 | 129.5 to 132.5 °C | CCCCc1nc2ccc(Br)cc2c2nc(-c3ccccc3)nn12 [Example 47, 9-bromo-5-n-butyl-2-phenyl-1,2,4-triazolo[1,5-c]quinazoline]
21 | 150 to 152 °C | CCCCc1nc2cc(OC)c(OC)cc2c2nc(-c3ccccc3)nn12 [Example 48, 5-n-butyl-8,9-dimethoxy-2-phenyl-1,2,4-triazolo[1,5-c]quinazoline]
22 | 123 to 124 °C | CCCCc1nc2cccc(C)c2c2nc(-c3ccccc3)nn12 [Example 49, 5-n-butyl-10-methyl-2-phenyl-1,2,4-triazolo[1,5-c]quinazoline]
23 | 157 to 160 °C | CCCCc1nc2nncc-2c2nc(-c3ccccc3OC)[nH]n12 [Example 53, 5-n-butyl-2-(2-methoxyphenyl)pyrazolo[4,3-e]-1,2,4-triazolo[1,5-c]pyrimidine]
24 | 204 to 205 °C | CCCCc1nc2nncc-2c2nc(-c3ccc(SC)cc3)[nH]n12 [Example 56, 5-n-butyl-2-(4-methylthiophenyl)pyrazolo[4,3-e]-1,2,4-triazolo[1,5-c]pyrimidine]
25 | 118 to 119 °C | CCCCc1nc2ccccc2c2nc(-c3cccc(OC)c3)nn12 [Example 57, 5-n-butyl-2-(3-methoxyphenyl)-1,2,4-triazolo[1,5-c]quinazoline]
26 | 140.5 to 141.5 °C | CCCCc1nc2ccccc2c2nc(-c3ccc(SC)cc3)nn12 [Example 58, 5-n-butyl-2-(4-methylthiophenyl)-1,2,4-triazolo[1,5-c]quinazoline]
27 | 272.5 to 275 °C | c1ccc(-c2nc3c4cnnc-4nc(-c4ccccc4)n3[nH]2)cc1 [Example 59, 2,5-diphenylpyrazolo[4,3-e]-1,2,4-triazolo[1,5-c]pyrimidine]
28 | 274 to 275 °C | CCCc1nc2nncc-2c2nc(-c3ccc(C)cc3)[nH]n12 [Example 60, 2-(4-methylphenyl)-5-n-propylpyrazolo[4,3-e]-1,2,4-triazolo[1,5-c]pyrimidine]
29 | 274 to 277 °C | CCc1nc2nncc-2c2nc(-c3ccc(OC)cc3)[nH]n12 [Example 63, 5-ethyl-2-(4-methoxyphenyl)pyrazolo[4,3-e]-1,2,4-triazolo[1,5-c]pyrimidine]
30 | > 280 °C | CCc1nc2nncc-2c2nc(-c3ccc(Cl)cc3)[nH]n12 [Example 64, 2-(4-chlorophenyl)-5-ethylpyrazolo[4,3-e]-1,2,4-triazolo[1,5-c]pyrimidine]
31 | > 280 °C | CCc1nc2nncc-2c2nc(-c3ccc(C)cc3)[nH]n12 [Example 65, 5-ethyl-2-(4-methylphenyl)pyrazolo[4,3-e]-1,2,4-triazolo[1,5-c]pyrimidine]
32 | 197 to 198 °C | CCc1nc2ccccc2c2nc(-c3ccc(Br)cc3)nn12 [Example 66, 2-(4-bromophenyl)-5-ethyl-1,2,4-triazolo[1,5-c]quinazoline]
33 | 195 to 196 °C | CCc1nc2ccccc2c2nc(-c3ccc(F)cc3)nn12 [Example 67, 5-ethyl-2-(4-fluorophenyl)-1,2,4-triazolo[1,5-c]quinazoline]
